Here are results for 5 compounds from article PMC7961093, “Insights into the dual cleavage activity of the GH16 laminarinase enzyme class on β-1,3 and β-1,4 glycosidic bonds” (The Journal of Biological Chemistry, 2021).

One test deals with T1, SCLam (soil metagenome, UniProt Z9RH19THY1, E147S).
T1 construct: monomer in asymmetric unit
T1 sequence (Z9RH19THY1 4-269 E147S): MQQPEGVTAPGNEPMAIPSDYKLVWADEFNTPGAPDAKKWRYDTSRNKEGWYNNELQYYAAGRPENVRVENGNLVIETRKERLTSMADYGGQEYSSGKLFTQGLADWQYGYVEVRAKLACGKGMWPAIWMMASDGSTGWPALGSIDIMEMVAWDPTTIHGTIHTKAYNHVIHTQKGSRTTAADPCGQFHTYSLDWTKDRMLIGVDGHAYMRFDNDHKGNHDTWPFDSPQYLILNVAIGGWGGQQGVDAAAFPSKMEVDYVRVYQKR
Nature of the test: isothermal titration calorimetry. The class given is binding. The settings on record: 20 mM sodium phosphate pH 6.5, 20 °C. From the text:
isothermal titration calorimetry on SCLam
Background: In ITC the heat of successive injections is recorded.

For another test, the target named is T2, TpLam (Thermotoga petrophila, UniProt A5IL44).
T2 construct: gene Tpet_0899; purified preparation
T2 sequence (A5IL44 18-641): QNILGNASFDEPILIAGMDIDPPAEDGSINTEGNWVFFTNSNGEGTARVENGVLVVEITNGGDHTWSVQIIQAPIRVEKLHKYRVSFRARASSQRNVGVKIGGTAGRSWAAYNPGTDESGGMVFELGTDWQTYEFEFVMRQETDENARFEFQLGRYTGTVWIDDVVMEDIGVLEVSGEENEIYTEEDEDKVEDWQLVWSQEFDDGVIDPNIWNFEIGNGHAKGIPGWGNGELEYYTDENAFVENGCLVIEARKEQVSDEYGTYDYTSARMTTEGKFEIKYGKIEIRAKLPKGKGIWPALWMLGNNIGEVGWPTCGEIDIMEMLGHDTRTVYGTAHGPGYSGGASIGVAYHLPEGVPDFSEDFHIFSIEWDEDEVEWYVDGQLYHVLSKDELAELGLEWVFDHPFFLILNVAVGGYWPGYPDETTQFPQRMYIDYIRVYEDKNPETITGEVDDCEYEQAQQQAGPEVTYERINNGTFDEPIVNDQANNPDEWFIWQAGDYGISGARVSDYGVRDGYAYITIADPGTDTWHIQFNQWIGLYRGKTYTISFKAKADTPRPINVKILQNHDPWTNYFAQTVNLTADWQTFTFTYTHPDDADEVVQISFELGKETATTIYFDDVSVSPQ
The experiment in a line: capillary zone electrophoresis of hydrolysis products. The settings on record: 5 mM substrate, 10 μM enzyme, 70 °C, overnight. The class given is biochemical.

Where [1] appears, read: sequential binding model, site 1 (negative subsites).

For the compound `OC[C@H]1O[C@@H](O[C@H]2[C@H](O)[C@@H](O)[C@H](O[C@H]3[C@H](O)[C@@H](O)[C@H](O[C@H]4[C@H](O)[C@@H](CO)OC(O)[C@@H]4O)O[C@@H]3CO)O[C@@H]2CO)[C@H](O)[C@@H](O)[C@@H]1O` (stereo partly drawn) [BGB, 1,3-β-D-cellotriosyl-glucose], the “Ka × 10^4 (M^-1)” value on SCLam (single-site model) is 66.7 (±1.4) × 10^4. Consider `OC[C@H]1O[C@@H](O[C@@H]2[C@@H](O)[C@H](O[C@@H]3[C@@H](O)[C@H](O[C@@H]4[C@@H](O)[C@H](O[C@@H]5[C@@H](O)[C@H](O[C@H]6[C@H](O)[C@@H](CO)OC(O)[C@@H]6O)O[C@H](CO)[C@H]5O)O[C@H](CO)[C@H]4O)O[C@H](CO)[C@H]3O)O[C@H](CO)[C@H]2O)[C@H](O)[C@@H](O)[C@@H]1O` (some centres unmarked) [L6, laminarihexaose], for which the “Ka × 10^4 (M^-1)” value at SCLam (setting [1]) was 17.8 (±2.2) × 10^4. `OC[C@H]1O[C@@H](O[C@H]2[C@H](O)[C@@H](O)[C@H](O[C@H]3[C@H](O)[C@@H](O)[C@H](O[C@H]4[C@H](O)[C@@H](O)[C@H](O[C@H]5[C@H](O)[C@@H](O)[C@H](O[C@H]6[C@H](O)[C@@H](O)C(O)O[C@@H]6CO)O[C@@H]5CO)O[C@@H]4CO)O[C@@H]3CO)O[C@@H]2CO)[C@H](O)[C@@H](O)[C@@H]1O` (some centres unmarked) [C6, cellohexaose]: the “Ka × 10^4 (M^-1)” value on SCLam (setting [1]) is 9.7 (±0.56) × 10^4.

For `OC[C@H]1O[C@@H](O[C@H]2[C@H](O)[C@@H](O)[C@H](O[C@H]3[C@H](O)[C@@H](O)[C@H](O[C@H]4[C@H](O)[C@@H](O)[C@H](O[C@H]5[C@H](O)[C@@H](O)C(O)O[C@@H]5CO)O[C@@H]4CO)O[C@@H]3CO)O[C@@H]2CO)[C@H](O)[C@@H](O)[C@@H]1O` (some centres unmarked) [C5, cellopentaose], the “capillary zone electrophoresis of hydrolysis products” value at TpLam is reported as “we also evaluated the activity of the TpLam from Thermotoga petrophila”.

As to `OC[C@H]1O[C@@H](O[C@H]2[C@H](O)[C@@H](O)[C@H](O[C@@H]3[C@@H](O)[C@H](O[C@H]4[C@H](O)[C@@H](O)C(O)O[C@@H]4CO)O[C@H](CO)[C@H]3O)O[C@@H]2CO)[C@H](O)[C@@H](O)[C@@H]1O` (stereo partly drawn) [BGC, 1,3-β-D-cellobiosyl-cellobiose], the “Ka × 10^4 (M^-1)” value at SCLam (single-site model) is 0.59 (±0.07) × 10^4.
